{"source": "patent US11242337B2", "about": "“Compounds useful for treating gastrointestinal tract disorders” (Ardelyx, Inc., priority 2017, dated 2022)", "key": {"[1]": {"system": "absorption of sodium from the intestinal lumen", "assay": "Inhibition of intestinal sodium absorption in mice", "assay_type": "in vivo", "settings": "CD-1 mice, 15 mg/kg oral gavage twice daily; for Fecal fluid content (Δ from vehicle): day 3, change from vehicle group mean; for response vs control in vivo at 15 mg/kg: Mus musculus, 72 h, day 3, normalized to dietary sodium intake", "procedure,_shortened": "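Male ~8-week CD-1 mice on chow with added 0.4% inorganic phosphorous, in metabolic cages after 3-day acclimation and 24-hr baseline collection. Urine sodium by ion chromatography, dried fecal sodium by MP-AES; day-3 24-hour excretion normalized to dietary sodium intake and expressed as % of vehicle mean; diarrhea and fecal fluid also recorded.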"}, "[2]": {"system": "human duodenum monolayer culture", "assay": "Increased trans-epithelial resistance (TEER) in human organoid monolayer cell cultures", "assay_type": "cell-based", "settings": "1 μM apical, baseline corrected", "method": "Basal media (B consisted of advanced DMEM/F12 containing 10 mM HEPES (Invitrogen, 15630-080), 1:100 Glutamax (Invitrogen, 35050-061), and 1:100 penicillin/streptomycin (Invitrogen, 15140-122). Supplemented basal media (SBM) contained 1:100 N2 (Invitrogen, 17502-048), 1:50 B27 (Invitrogen, 12587-010), 1 mM N-acetylcysteine (Sigma, A9165), and 10 nM [Leu15]-gastrin I (Sigma, G9145). Growth factors used included 50 ng per mL mouse EGF (Peprotech, 315-09), 100 ng per mL mouse noggin (Peprotech, 250-38), 500 ng per mL human R-spondin 1 (R&D, 4645-RS), 100 ng per mL mouse Wnt-3a (R&D, 1324-WN), 20 μM Y-27632 (Tocris, 1254), 10 mM nicotinamide (Sigma, N0636), 500 nM A83-01 (Tocris, 2939), 10 μM SB202190 (Tocris, 1264). Transwells were 0.4 μm pore polyester membrane 24-well Transwell inserts (Corning). Cultures were incubated at 37° C. in 5% CO2.\nHuman duodenum organoids were cultured in WENRNAS (Wnt, EGF, noggin, R-spondin1, Nicotinamide, A83-01, SB202190) and typically grown for 7-12 days before being used to plate monolayer cultures. On day 0, organoid cultures embedded in Matrigel were treated with TrypLE Express to break organoids into small pieces and/or single cells. The cells were resuspended to 0.5×10^6 cells/mL in SBM containing WENRAY (Wnt, EGF, noggin, R-spondin1, A83-01, Y-27632). Following this step, 200 μL of cell suspension was plated into the apical side of a 24-well Transwell (100,000 cells/well) and 600 μL of SBM with WENRAY was added to the basolateral side. Duodenum cells were differentiated with ENA (EGF, noggin, A83-01) on day 3. The color of apical compartment turns from pink or orange to yellow due to the increase in NHE3 expression after differentiation.\nEach human duodenum monolayer culture well was washed twice with fresh SBM on the apical side on day 6 or day 7 before dosing. All compound stocks were 10 mM dissolved DMSO. Each compound stock was individually mixed with fresh SBM to reach final compound concentration 1 μM and dosed only on the apical side of the monolayer (total volume 200 μl). DMSO at the equivalent concentration was used as the vehicle control. Duplicate wells were dosed for each compound. Transepithelial electrical resistance (TEER) was used as a quantitative technique to measure of tight junction permeability. TEER values were recorded (MERS00002, Millipore) before dosing and 30 mins and 1 hr after dosing for all wells. Each of the duplicate TEER values following treatment were corrected for the individual well baseline TEER. Baseline corrected TEER for each example compound was compared to the average of the DMSO wells and expressed as a percent TEER of vehicle control."}, "[3]": {"settings": "read-out: Fecal Na Excretion (% of vehicle)"}, "[4]": {"settings": "read-out: Urinary Na Excretion (% of vehicle)"}, "[5]": {"settings": "1 hr after dosing, read-out: TEER at 60 minutes (% of Vehicle)"}, "[6]": {"settings": "0.5 h, 30 mins after dosing, read-out: TEER at 30 minutes (% of Vehicle)"}}, "note": "Read-outs that look alike come from different tables or passages of the source.", "data": [{"smiles": "Cc1cc(S(=O)(=O)NCCOCCOCCNC(=O)NCCCCNC(=O)NCCOCCOCCNS(=O)(=O)c2ccc(O[C@H]3c4cc(Cl)cc(C)c4C[C@@H]3N(C)C)c(C)c2)ccc1O[C@H]1c2cc(Cl)cc(C)c2C[C@@H]1N(C)C", "note": "[Example 17, 3-[2-(2-[2-[(4-[[(1S,2S)-6-Chloro-2-(dimethylamino)-4-methyl-2,3-dihydro-1H-inden-1-yl]oxy]-3-methylbenzene)sulfonamido]ethoxy]ethoxy)ethyl]-1-[4-([[2-(2-[2-[(4-[[(1S,2S)-6-chloro-2-(dimethylamino)-4-methyl-2,3-dihydro-1H-inden-1-yl]oxy]-3-methylbenzene)sulfonamido]ethoxy]ethoxy)ethyl]carbamoyl]amino)butyl]urea]", "values": [{"measurement": "Fecal fluid content (Δ from vehicle)", "setting": "[1]", "value": "B (5-10)"}, {"measurement": "response vs control in vivo at 15 mg/kg", "setting": "[1]; [3]", "value": "150 to 200", "unit": "%"}, {"measurement": "response vs control in vivo at 15 mg/kg", "setting": "[1]; [4]", "value": "50 to 70", "unit": "%"}, {"measurement": "activity at 1 µM", "setting": "[2]; [5]", "value": "100 to 130", "unit": "%"}, {"measurement": "activity at 1 µM", "setting": "[2]; [6]", "value": "100 to 130", "unit": "%"}]}, {"smiles": "Cc1cc(Cl)cc2c1C[C@H](N(C)C)[C@H]2Oc1ccc(S(=O)(=O)NCCOCCOCCNC(=O)NCCCCNC(=O)NCCOCCOCCNS(=O)(=O)c2ccc(O[C@H]3c4cc(Cl)cc(C)c4C[C@@H]3N(C)C)c(F)c2)cc1F", "note": "[Example 24, 3-[2-(2-[2-[(4-[[(1S,2S)-6-Chloro-2-(dimethylamino)-4-methyl-2,3-dihydro-1H-inden-1-yl]oxy]-3-fluorobenzene)sulfonamido]ethoxy]ethoxy)ethyl]-1-[4-([[2-(2-[2-[(4-[[(1S,2S)-6-chloro-2-(dimethylamino)-4-methyl-2,3-dihydro-1H-inden-1-yl]oxy]-3-fluorobenzene)sulfonamido]ethoxy]ethoxy)ethyl]carbamoyl]amino)butyl]urea]", "values": [{"measurement": "Fecal fluid content (Δ from vehicle)", "setting": "[1]", "value": "A (<5)"}, {"measurement": "response vs control in vivo at 15 mg/kg", "setting": "[1]; [3]", "value": "> 200", "unit": "%"}, {"measurement": "response vs control in vivo at 15 mg/kg", "setting": "[1]; [4]", "value": "50 to 70", "unit": "%"}, {"measurement": "activity at 1 µM", "setting": "[2]; [5]", "value": "100 to 130", "unit": "%"}, {"measurement": "activity at 1 µM", "setting": "[2]; [6]", "value": "100 to 130", "unit": "%"}]}, {"smiles": "Cc1cc(Cl)cc2c1C[C@H](N1CCC[C@@H](N(C)C)C1)[C@H]2Oc1ccc(S(=O)(=O)NCCOCCOCCNC(=O)NCCCCNC(=O)NCCOCCOCCNS(=O)(=O)c2ccc(O[C@H]3c4cc(Cl)cc(C)c4C[C@@H]3N3CCC[C@@H](N(C)C)C3)c(F)c2)cc1F", "note": "[Example 30, 3-[2-(2-[2-[(4-[[(1S,2S)-6-Chloro-2-[(3R)-3-(dimethylamino)piperidin-1-yl]-4-methyl-2,3-dihydro-1H-inden-1-yl]oxy]-3-fluorobenzene)sulfonamido]ethoxy]ethoxy)ethyl]-1-[4-([[2-(2-[2-[(4-[[(1S,2S)-6-chloro-2-[(3R)-3-(dimethylamino)piperidin-1-yl]-4-methyl-2,3-dihydro-1H-inden-1-yl]oxy]-3-fluorobenzene)sulfonamido]ethoxy]ethoxy)ethyl]carbamoyl]amino)butyl]urea; bis(trifluoroacetic acid)]", "values": [{"measurement": "Fecal fluid content (Δ from vehicle)", "setting": "[1]", "value": "C (>10)"}, {"measurement": "response vs control in vivo at 15 mg/kg", "setting": "[1]; [3]", "value": "> 200", "unit": "%"}, {"measurement": "response vs control in vivo at 15 mg/kg", "setting": "[1]; [4]", "value": "50 to 70", "unit": "%"}, {"measurement": "activity at 1 µM", "setting": "[2]; [5]", "value": "100 to 130", "unit": "%"}, {"measurement": "activity at 1 µM", "setting": "[2]; [6]", "value": "100 to 130", "unit": "%"}]}, {"smiles": "O=C(NCCCCNC(=O)NCCOCCN1CC[C@@H](NS(=O)(=O)c2ccc(O[C@H]3c4cc(Cl)cc(Cl)c4C[C@@H]3N3CCNCC3)c(F)c2)C1)NCCOCCN1CC[C@@H](NS(=O)(=O)c2ccc(O[C@H]3c4cc(Cl)cc(Cl)c4C[C@@H]3N3CCNCC3)c(F)c2)C1", "note": "[Example 105, 4-([(1S,2S)-4,6-Dichloro-2-(piperazin-1-yl)-2,3-dihydro-1H-inden-1-yl]oxy)-N—[(R)-1-(20-[(R)-3-([4-([(1S2S)-4,6-dichloro-2-(piperazin-1-yl)-2,3-dihydro-1H-inden-1-yl]oxy)-3-fluorophenyl]sulfonamido)pyrrolidin-1-yl]-7,14-dioxo-3,18-dioxa-6,8,13,15-tetraazaicosyl)pyrrolidin-3-yl]-3-fluorobenzenesulfonamide; tetra(trifluoroacetate)]", "values": [{"measurement": "activity at 1 µM", "setting": "[2]; [5]", "value": "> 130", "unit": "%"}, {"measurement": "activity at 1 µM", "setting": "[2]; [6]", "value": "> 130", "unit": "%"}]}, {"smiles": "O=C(NCCCCNC(=O)NCCOCCN1CC[C@H](NS(=O)(=O)c2ccc(O[C@H]3c4cc(Cl)cc(Cl)c4C[C@@H]3N3CCNCC3)c(F)c2)C1)NCCOCCN1CC[C@H](NS(=O)(=O)c2ccc(O[C@H]3c4cc(Cl)cc(Cl)c4C[C@@H]3N3CCNCC3)c(F)c2)C1", "note": "[Example 106, 4-([(1S,2S)-4,6-Dichloro-2-(piperazin-1-yl)-2,3-dihydro-1H-inden-1-yl]oxy)-N—[(S)-1-(20-[(S)-3-([4-([(1S,2S)-4,6-dichloro-2-(piperazin-1-yl)-2,3-dihydro-1H-inden-1-yl]oxy)-3-fluorophenyl]sulfonamido)pyrrolidin-1-yl]-7,14-dioxo-3,18-dioxa-6,8,13,15-tetraazaicosyl)pyrrolidin-3-yl]-3-fluorobenzenesulfonamide; tetra(trifluoroacetate)]", "values": [{"measurement": "activity at 1 µM", "setting": "[2]; [5]", "value": "> 130", "unit": "%"}, {"measurement": "activity at 1 µM", "setting": "[2]; [6]", "value": "> 130", "unit": "%"}]}, {"smiles": "N#Cc1cc(Cl)cc2c1C[C@H](N1CCNCC1)[C@H]2Oc1ccc(S(=O)(=O)N[C@H]2CCN(CCOCCNC(=O)NCCCCNC(=O)NCCOCCN3CC[C@H](NS(=O)(=O)c4ccc(O[C@H]5c6cc(Cl)cc(C#N)c6C[C@@H]5N5CCNCC5)cc4)C3)C2)cc1", "note": "[Example 107, 4-([(1S,2S)-6-Chloro-4-cyano-2-(piperazin-1-yl)-2,3-dihydro-1H-inden-1-yl]oxy)-N—[(S)-1-(20-[(S)-3-([4-([(1S,2S)-6-chloro-4-cyano-2-(piperazin-1-yl)-2,3-dihydro-1H-inden-1-yl]oxy)phenyl]sulfonamido)pyrrolidin-1-yl]-7,14-dioxo-3,18-dioxa-6,8,13,15-tetraazaicosyl)pyrrolidin-3-yl]benzenesulfonamide; tetra(trifluoroacetate)]", "values": [{"measurement": "activity at 1 µM", "setting": "[2]; [5]", "value": "100 to 130", "unit": "%"}, {"measurement": "activity at 1 µM", "setting": "[2]; [6]", "value": "> 130", "unit": "%"}]}, {"smiles": "N#Cc1cc(Cl)cc2c1C[C@H](N1CCNCC1)[C@H]2Oc1ccc(S(=O)(=O)N[C@H]2CCN(CCOCCNC(=O)NCCCCNC(=O)NCCOCCN3CC[C@H](NS(=O)(=O)c4ccc(O[C@H]5c6cc(Cl)cc(C#N)c6C[C@@H]5N5CCNCC5)c(F)c4)C3)C2)cc1F", "note": "[Example 110, 4-([(1S,2S)-6-Chloro-4-cyano-2-(piperazin-1-yl)-2,3-dihydro-1H-inden-1-yl]oxy)-N—[(S)-1-(20-[(S)-3-[(4-([(1S,2S)-6-chloro-4-cyano-2-(piperazin-1-yl)-2,3-dihydro-1H-inden-1-yl]oxy)-3-fluorophenyl)sulfonamide)pyrrolidin-1-yl]-7,14-dioxo-3,18-dioxa-6,8,13,15-tetraazaicosyl)pyrrolidin-3-yl]-3-fluorobenzenesulfonamide; tetra(trifluoroacetate)]", "values": [{"measurement": "activity at 1 µM", "setting": "[2]; [5]", "value": "100 to 130", "unit": "%"}, {"measurement": "activity at 1 µM", "setting": "[2]; [6]", "value": "> 130", "unit": "%"}]}, {"smiles": "N#Cc1cc(Cl)cc2c1C[C@H](N1CCNCC1)[C@H]2Oc1ccc(S(=O)(=O)NC2CCN(C(=O)CCCNC(=O)NCCCCNC(=O)NCCCC(=O)N3CCC(NS(=O)(=O)c4ccc(O[C@H]5c6cc(Cl)cc(C#N)c6C[C@@H]5N5CCNCC5)cc4)CC3)CC2)cc1", "note": "[Example 115]", "values": [{"measurement": "activity at 1 µM", "setting": "[2]; [5]", "value": "100 to 130", "unit": "%"}, {"measurement": "activity at 1 µM", "setting": "[2]; [6]", "value": "100 to 130", "unit": "%"}]}, {"smiles": "N#Cc1cc(Cl)cc2c1C[C@H](N1CCCNCC1)[C@H]2Oc1ccc(S(=O)(=O)N[C@H]2CCN(CCOCCNC(=O)NCCCCNC(=O)NCCOCCN3CC[C@H](NS(=O)(=O)c4ccc(O[C@H]5c6cc(Cl)cc(C#N)c6C[C@@H]5N5CCCNCC5)cc4)C3)C2)cc1", "note": "[Example 126, 4-([(1S,2S)-6-Chloro-4-cyano-2-(1,4-diazepan-1-yl)-2,3-dihydro-1H-inden-1-yl]oxy)-N—[(S)-1-(20-[(S)-3-([4-([(1S,2S)-6-chloro-4-cyano-2-(1,4-diazepan-1-yl)-2,3-dihydro-1H-inden-1-yl]oxy)phenyl]sulfonamido)pyrrolidin-1-yl]-7,14-dioxo-3,18-dioxa-6,8,13,15-tetraazaicosyl)pyrrolidin-3-yl]benzenesulfonamide]", "values": [{"measurement": "activity at 1 µM", "setting": "[2]; [5]", "value": "100 to 130", "unit": "%"}, {"measurement": "activity at 1 µM", "setting": "[2]; [6]", "value": "100 to 130", "unit": "%"}]}]}
